Assay results: paper PMC11939078, “TAK-994 mechanistic investigation into drug-induced liver injury” (Toxicological Sciences, 2025)

Columns and labels:
[1] = test system: nonTg-rasH2 mice; assay: NonTg rasH2 mice 4-week oral gavage toxicity study; assay type: in vivo, mouse; conditions: for Histopathological Liver Findings / ALT / AST / GLDH: NonTg rasH2 mice 4-week; for ALT / AST / GLDH: mean (SD)
Procedure: Although phase I human clinical trials were ongoing, additional GLP-compliant repeat-dose oral toxicity studies were conducted in nonTg-rasH2 mice, to enable carcinogenicity studies. […] The liver toxicity presented at high doses ≥300 mg/kg/day as single-cell necrosis of periportal hepatocytes associated with increased aspartate aminotransferase (AST), alkaline phosphatase, ALT, and glutamate dehydrogenase values that increased in a dose-proportional manner alongside cytochrome P450 induction (Table S2).
^cAll dose levels had 10 animals per sex.
*p<0.05 using Shirley-Williams test.

[2] = Plasma exposure in NT1 patients; assay type: in vivo, human
[3] = test system: Hepatocyte spheroids; assay: Hepatocyte spheroid (monoculture, no nonparenchymal cells) cytotoxicity, cellular ATP; assay type: cell-based, human
Procedure: Toxicology of TAK-994 was assessed using lnSphero’s 3D lnSight Human Liver models, based on N-acetyl-L-cysteine causality assay, glutathione depletion assay, and lipopolysaccharide (LPS)-sensitization assay. Hepatotoxicity was assessed in 7- and 14-day mono and co-culture models, in which cells were exposed to TAK-994 (0.1, 0.3, 1, 3.16, 10, 31.6, or 100 μM) […].
The test system was Human 3D InSight Liver Models, production ID hLiMT_589, cryopreserved primary human hepatocytes (Lot IPDH_18; single donor) in monoculture or in co-culture with cryopreserved primary human nonparenchymal cells (Lot IPHN_17; single donor). Human liver microtissues are composed of roughly 1000 hepatocytes and 1000 non-parenchymal live cells. Non-parenchymal liver cell fractions are expected to be composed of Kupffer cells and liver endothelial cells however, these were not identified.
Mono and co-culture model cells were exposed to TAK-994 (0.1, 0.3, 1, 3.16, 10, 31.6, or 100 μM in 0.5% DMSO) for 7 days (TAK-994 administered on Days 0 and 4) or 14 days (TAK-994 administered on Days 0, 5, and 9). Six replicates were tested for each condition. The vehicle control was 0.5% DMSO, and the positive control was chlorpromazine (0.1, 0.3, 1, 3.16, 10, 31.6, or 100 μM in DMSO). Cellular ATP content was measured in the cell lysate on Days 7 or 14 of treatment. LDH release was measured in the cell supernatant on Days 4 and 7 or on Days 5, 9, and 14 and normalized to lysed controls.
Intracellular ATP content in model lysates was measured with the CellTiter-Glo® 2.0 Cell Viability Assay (Catalogue No. G9243, Promega). The Bioluminescent LDH Release Toxicity Assay Kit (Catalogue No. J2380, Promega) was used to assess extracellular LDH release and normalized to lysed controls. ATP, LDH, GSH, and triglycerides were measured according to internal technical operating procedures.

Q: Which “Histopathological Liver Findings” value ([1]; female, 300 mg/kg) does the source give for `CC(C)(O)C(=O)N1CC[C@H](NS(C)(=O)=O)[C@@H]1Cc1cccc(-c2cc(F)cc(F)c2)c1F.CC(C)(O)C(=O)N1CC[C@H](NS(C)(=O)=O)[C@@H]1Cc1cccc(-c2cc(F)cc(F)c2)c1F.O.O.O` [TAK-994] here?
A: Single cell necrosis of hepatocytes

Q: What about the ALT ([1]; female, 300 mg/kg) of the same compound?
A: 175 (79)* IU/L

Q: And the AST ([1]; female, 300 mg/kg)?
A: 163 (65)* IU/L

Q: And the GLDH ([1]; female, 300 mg/kg)?
A: 172 (66)* IU/L

Q: What about the “Histopathological Liver Findings” value ([1]; female, 2000 mg/kg) of the same compound?
A: Single cell necrosis of hepatocytes

Q: What about the ALT ([1]; female, 2000 mg/kg) of the same compound?
A: 581 (278)* IU/L

Q: And the AST ([1]; female, 2000 mg/kg)?
A: 317 (203)* IU/L

Q: What about the GLDH ([1]; female, 2000 mg/kg) of the same compound?
A: 562 (324)* IU/L

Q: What about the “Histopathological Liver Findings” value ([1]; female, 4000 mg/kg) of the same compound?
A: Single cell necrosis of hepatocytes

Q: What about the ALT ([1]; female, 4000 mg/kg) of the same compound?
A: 1242 (604)* IU/L

Q: What about the AST ([1]; female, 4000 mg/kg) of the same compound?
A: 473 (216)* IU/L

Q: What about the GLDH ([1]; female, 4000 mg/kg) of the same compound?
A: 1384 (585)* IU/L

Q: And the “Histopathological Liver Findings” value ([1]; male, 300 mg/kg)?
A: Single cell necrosis of hepatocytes

Q: And the ALT ([1]; male, 300 mg/kg)?
A: 99 (57)* IU/L

Q: What about the AST ([1]; male, 300 mg/kg) of the same compound?
A: 79 (34)* IU/L

Q: And the GLDH ([1]; male, 300 mg/kg)?
A: 104 (68)* IU/L

Q: And the “Histopathological Liver Findings” value ([1]; male, 2000 mg/kg)?
A: Single cell necrosis of hepatocytes

Q: What about the ALT ([1]; male, 2000 mg/kg) of the same compound?
A: 337 (409)* IU/L

Q: And the AST ([1]; male, 2000 mg/kg)?
A: 211 (299)* IU/L

Q: What about the GLDH ([1]; male, 2000 mg/kg) of the same compound?
A: 331 (356)* IU/L

Q: What about the “Histopathological Liver Findings” value ([1]; male, 4000 mg/kg) of the same compound?
A: Single cell necrosis of hepatocytes

Q: And the ALT ([1]; male, 4000 mg/kg)?
A: 1164 (330)* IU/L

Q: And the AST ([1]; male, 4000 mg/kg)?
A: 443 (150)* IU/L

Q: What about the GLDH ([1]; male, 4000 mg/kg) of the same compound?
A: 1303 (408)* IU/L

Q: And the “doses at which liver toxicity (single-cell necrosis of periportal hepatocytes, increased AST, ALP, ALT, GLDH) presented” value ([1]; nonTg-rasH2 mice, repeat-dose oral)?
A: ≥ 300 mg/kg/day

Q: And the “AUC24, ss in NT1 patients” value ([2]; 30 mg BID)?
A: 2,920 h*nM

Q: What about the Cmax ([2]; 30 mg BID) of the same compound?
A: 408 nM

Q: And the “AUC24, ss in NT1 patients” value ([2]; 90 mg BID)?
A: 8,870 h*nM

Q: And the Cmax ([2]; 90 mg BID)?
A: 948 nM

Q: And the “AUC24, ss in NT1 patients” value ([2]; 180 mg BID)?
A: 14,800 h*nM

Q: What about the Cmax ([2]; 180 mg BID) of the same compound?
A: 1640 nM

Q: And the “loss of cellular ATP” value ([3]; 100 µM TAK-994, absence of nonparenchymal cells)?
A: ~50%

Q: And the IC50 ([3]; cellular ATP, read-out: IC50, hepatocyte spheroids (Fig. 2B))?
A: > 100 µM
